# Measured values: US20250296959A1, “B7-H3 TARGETING PEPTIDES AND CONSTRUCTS THEREOF” (Mariana Oncology Inc., priority 2024, published 2025)
# Starred links: 1 amine or outer side, 2 acyl side, 3 side chain; linkers in the order of their positions; H or OH if unused. Positions of bridges follow the written chain, without caps; N, C: chain ends. Non-standard residues stand in square brackets, D forms with d. Residues, ends and D or L forms follow the SMILES beside them. Groups on a side chain read outwards from the residue. *: point of attachment. X7 = O=C(O)CN1CCN(CC(=O)O)CCN(CC(=O)NCCOCCOCCOCCOCCOCCOCCOCCOCC(=O)*)CCN(CC(=O)O)CC1; Ala(piperidin-4-yl) = O=C([C@H](CC1CCN([*:3])CC1)N[*:1])[*:2]; Phe(3-CH2NH2) = O=C([C@H](Cc1cccc(CN[*:3])c1)N[*:1])[*:2]; DOTA = O=C(O)CN1CCN(CC(=O)O)CCN(CC(=O)*)CCN(CC(=O)O)CC1; Phe(4-NHCONH2) = NC(=O)Nc1ccc(C[C@H](N)C(=O)O)cc1; Phe(4-COOH) = N[C@@H](Cc1ccc(C(=O)O)cc1)C(=O)O; Trp(5-F) = N[C@@H](Cc1c[nH]c2ccc(F)cc12)C(=O)O; X1 = C[C@@H](c1ccccc1)[C@H](N[*:1])C(=O)[*:2]; PEG8 = NCCOCCOCCOCCOCCOCCOCCOCCOCCC(=O)O; C16 diacid = O=C(O)CCCCCCCCCCCCCCC(=O)*; γGlu = O=C(O)[C@H](CCC(=O)[*:2])N[*:1]; 1Nal = N[C@@H](Cc1cccc2ccccc12)C(=O)O; Ala(4-THP) = N[C@@H](CC1CCOCC1)C(=O)O; Val(3-OH) = CC(C)(O)[C@H](N)C(=O)O; Aad = N[C@@H](CCCC(=O)O)C(=O)O; aThr = C[C@H](O)[C@H](N)C(=O)O; PEG4 = NCCOCCOCCOCCOCCC(=O)O; Pen = CC(C)(S)[C@H](N)C(=O)O; Tle = CC(C)(C)[C@H](N)C(=O)O; hLeu = CC(C)CC[C@H](N)C(=O)O; Nle = CCCC[C@H](N)C(=O)O
# Target: T1, human 4lg B7-H3 (Homo sapiens, UniProt Q5ZPR3)
# T1 sequence (Q5ZPR3 29-534): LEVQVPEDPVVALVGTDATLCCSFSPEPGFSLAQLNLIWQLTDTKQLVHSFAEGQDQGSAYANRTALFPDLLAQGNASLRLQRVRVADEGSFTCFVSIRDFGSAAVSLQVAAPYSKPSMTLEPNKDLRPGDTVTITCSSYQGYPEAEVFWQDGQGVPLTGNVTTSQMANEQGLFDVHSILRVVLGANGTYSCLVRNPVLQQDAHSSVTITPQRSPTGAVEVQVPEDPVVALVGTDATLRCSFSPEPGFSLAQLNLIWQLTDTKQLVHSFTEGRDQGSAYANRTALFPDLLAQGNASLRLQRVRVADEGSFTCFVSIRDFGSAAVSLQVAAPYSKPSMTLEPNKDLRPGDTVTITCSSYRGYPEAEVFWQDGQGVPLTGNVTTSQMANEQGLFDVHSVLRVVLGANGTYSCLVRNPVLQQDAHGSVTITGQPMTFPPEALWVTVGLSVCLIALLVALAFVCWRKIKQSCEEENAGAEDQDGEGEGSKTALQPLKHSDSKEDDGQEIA
# Assay: Affinity determination by surface plasmon resonance (SPR) to 4Ig B7-H3
# Details: SPR KD—25° C., 4Ig B7-H3; 25° C. flow cell temperature
row,Kd [µM],Structure (SMILES)
1,0.1 to 0.3,"CCCC[C@H](NC(C)=O)C(=O)N[C@@H](Cc1ccc(O)cc1)C(=O)N[C@H]1CSSC[C@@H](C(=O)N[C@@H](Cc2c[nH]c3ccccc23)C(=O)N[C@@H](Cc2ccccc2)C(=O)N[C@H](C(=O)N[C@H](CCCCNC(=O)CN2CCN(CC(=O)O)CCN(CC(=O)O)CCN(CC(=O)O)CC2)C(=O)O)[C@@H](C)O)NC(=O)[C@H](Cc2ccc(O)cc2)NC(=O)[C@H](C(C)C)NC(=O)[C@H](CCCC(=O)O)NC(=O)[C@H](Cc2ccc(O)cc2)NC(=O)[C@H](CCCCN)NC(=O)CNC(=O)[C@H](C(C)C)NC1=O [compound 102, Ac-Nle-Y-C-V-G-K-Y-HomoGlu-V-Y-C-W-F-Thr-dLys(DOTA)-COOH] (Ac-[Nle]YCVGKY[Aad]VYCWFT[dK](DOTA)-OH; disulfide 3-11)"
2,0.01 to 0.1,"CC(=O)N[C@@H](CCC(C)C)C(=O)N[C@@H](Cc1ccc(O)cc1)C(=O)N[C@@H]1C(=O)N[C@@H](C(C)C)C(=O)NCC(=O)N[C@@H](CCCCN)C(=O)N[C@@H](Cc2ccc(O)cc2)C(=O)N[C@@H](CC(=O)O)C(=O)N[C@@H](C(C)C)C(=O)N[C@@H](Cc2ccc(O)cc2)C(=O)N[C@H](C(=O)N[C@@H](Cc2c[nH]c3ccccc23)C(=O)N[C@@H](Cc2ccccc2)C(=O)N[C@H](C(=O)N[C@H](CCCCNC(=O)CN2CCN(CC(=O)O)CCN(CC(=O)O)CCN(CC(=O)O)CC2)C(N)=O)[C@@H](C)O)CSSC1(C)C [compound 117, Ac-hLeu-Y-Pen-V-G-K-Y-D-V-Y-C-W-F-Thr-dLys(DOTA)-CONH2] (Ac-[hLeu]Y[Pen]VGKYDVYCWFT[dK](DOTA)-NH2; disulfide 3-11)"
3,0.001 to 0.01,"CC(C)CC[C@H](NC(=O)CCOCCOCCOCCOCCOCCOCCOCCOCCNC(=O)CN1CCN(CC(=O)O)CCN(CC(=O)O)CCN(CC(=O)O)CC1)C(=O)N[C@@H](Cc1ccc(O)cc1)C(=O)N[C@H]1CSSC[C@@H](C(=O)N[C@@H](Cc2c[nH]c3ccc(F)cc23)C(=O)N[C@@H](Cc2ccccc2)C(=O)N2CCC[C@H]2C(N)=O)NC(=O)[C@H](Cc2ccc(O)cc2)NC(=O)[C@H](C(C)C)NC(=O)[C@H](CC(=O)O)NC(=O)[C@H](Cc2ccc(C(=O)O)cc2)NC(=O)[C@H](CC2CCNCC2)NC(=O)CNC(=O)[C@H](C(C)C)NC1=O [compound 285, DOTA-PEG8-hLeu-Y-C-V-G-PipAla-4COOHPhe-D-V-Y-C-5FW-F-Pro-CONH2] ({DOTA-PEG8}-[hLeu]YCVG[Ala(piperidin-4-yl)][Phe(4-COOH)]DVYC[Trp(5-F)]FP-NH2; disulfide 3-11)"
4,< 0.001,"CC(=O)N[C@@H](CCC(C)C)C(=O)N[C@@H](Cc1ccc(O)cc1)C(=O)N[C@H]1CSSC[C@@H](C(=O)N[C@@H](Cc2cccc3ccccc23)C(=O)N[C@@H](Cc2ccccc2)C(=O)N2CCC[C@H]2C(=O)N[C@H](CCCCNC(=O)CC[C@H](NC(=O)CN2CCN(CC(=O)O)CCN(CC(=O)O)CCN(CC(=O)O)CC2)C(=O)O)C(N)=O)NC(=O)[C@H](Cc2ccc(O)cc2)NC(=O)[C@H](C(C)C)NC(=O)[C@H](CC(=O)O)NC(=O)[C@H](CC2CCOCC2)NC(=O)[C@H](CCCCN)NC(=O)CNC(=O)[C@H](C(C)(C)C)NC1=O [compound 274, Ac-hLeu-Y-C-Tbg-G-K-ThpA-D-V-Y-C-1Nal-F-Pro-dLys(gE-DOTA)-CONH2] (Ac-[hLeu]YC[Tle]GK[Ala(4-THP)]DVYC[1Nal]FP[dK]([γGlu-DOTA])-NH2; disulfide 3-11)"
5,0.001 to 0.01,"CC(=O)N[C@@H](CCC(C)C)C(=O)N[C@@H](Cc1ccc(O)cc1)C(=O)N[C@H]1CSSC[C@@H](C(=O)N[C@@H](Cc2c[nH]c3ccc(F)cc23)C(=O)N[C@@H](Cc2ccccc2)C(=O)N2CCC[C@H]2C(=O)N[C@H](CCCCNC(=O)CN2CCN(CC(=O)O)CCN(CC(=O)O)CCN(CC(=O)O)CC2)C(=O)O)NC(=O)[C@H](Cc2ccc(O)cc2)NC(=O)[C@H](C(C)C)NC(=O)[C@H](CC(=O)O)NC(=O)[C@H](CC2CCOCC2)NC(=O)[C@H](CCCCN)NC(=O)CNC(=O)[C@H](C(C)(C)C)NC1=O [compound 304, Ac-hLeu-Y-C-Tbg-G-K-ThpA-D-V-Y-C-5FW-F-Pro-dLys(DOTA)-COOH] (Ac-[hLeu]YC[Tle]GK[Ala(4-THP)]DVYC[Trp(5-F)]FP[dK](DOTA)-OH; disulfide 3-11)"
6,0.001 to 0.01,"CC(=O)N[C@@H](CCC(C)C)C(=O)N[C@@H](Cc1ccc(O)cc1)C(=O)N[C@H]1CSSC[C@@H](C(=O)N[C@@H](Cc2cccc3ccccc23)C(=O)N[C@@H](Cc2ccccc2)C(=O)N2CCC[C@H]2C(N)=O)NC(=O)[C@H](Cc2ccc(O)cc2)NC(=O)[C@H](C(C)C)NC(=O)[C@H](CC(=O)O)NC(=O)[C@H](Cc2cccc(CNC(=O)COCCOCCOCCOCCOCCOCCOCCOCCNC(=O)CN3CCN(CC(=O)O)CCN(CC(=O)O)CCN(CC(=O)O)CC3)c2)NC(=O)[C@H](CCCCN)NC(=O)CNC(=O)[C@H](C(C)(C)C)NC1=O [compound 279, Ac-hLeu-Y-C-Tbg-G-K-MAF(PEG8-DOTA)-D-V-Y-C-1Nal-F-Pro-CONH2] (Ac-[hLeu]YC[Tle]GK[Phe(3-CH2NH2)](X7)DVYC[1Nal]FP-NH2; disulfide 3-11)"
7,0.001 to 0.01,"CC(=O)N[C@@H](CCC(C)C)C(=O)N[C@@H](Cc1ccc(O)cc1)C(=O)N[C@H]1CSSC[C@@H](C(=O)N[C@@H](Cc2c[nH]c3ccc(F)cc23)C(=O)N[C@@H](Cc2ccccc2)C(=O)N[C@H](C(=O)N[C@H](CCCCNC(=O)CN2CCN(CC(=O)O)CCN(CC(=O)O)CCN(CC(=O)O)CC2)C(N)=O)[C@@H](C)O)NC(=O)[C@H](Cc2ccc(O)cc2)NC(=O)[C@H](C(C)C)NC(=O)[C@H](CC(=O)O)NC(=O)[C@H]([C@H](C)O)NC(=O)[C@H](CCCCN)NC(=O)CNC(=O)[C@H](C(C)C)NC1=O [compound 178, Ac-hLeu-Y-C-V-G-K-alloThr-D-V-Y-C-5FW-F-Thr-dLys(DOTA)-CONH2] (Ac-[hLeu]YCVGK[aThr]DVYC[Trp(5-F)]FT[dK](DOTA)-NH2; disulfide 3-11)"
8,0.01 to 0.1,"CCCC[C@H](NC(C)=O)C(=O)N[C@@H](Cc1ccc(O)cc1)C(=O)N[C@H]1CSSC[C@@H](C(=O)N[C@@H](Cc2c[nH]c3ccccc23)C(=O)N[C@@H](Cc2ccccc2)C(=O)N[C@H](C(=O)N[C@H](CCCCNC(=O)CN2CCN(CC(=O)O)CCN(CC(=O)O)CCN(CC(=O)O)CC2)C(N)=O)[C@@H](C)O)NC(=O)[C@H](Cc2ccc(O)cc2)NC(=O)[C@H](C(C)C)NC(=O)[C@H](CC(N)=O)NC(=O)[C@H](Cc2ccc(O)cc2)NC(=O)[C@H](CCCCN)NC(=O)CNC(=O)[C@H](C(C)C)NC1=O [compound 80, Ac-Nle-Y-C-V-G-K-Y-N-V-Y-C-W-F-Thr-dLys(DOTA)-CONH2] (Ac-[Nle]YCVGKYNVYCWFT[dK](DOTA)-NH2; disulfide 3-11)"

# Same assay, conditions: SPR KD—37° C., 4Ig B7-H3; 37° C. flow cell temperature
row,Kd [µM],Structure (SMILES)
1,< 0.001,"CC(=O)N[C@@H](CCC(C)C)C(=O)N[C@@H](Cc1ccc(O)cc1)C(=O)N[C@H]1CSSC[C@@H](C(=O)N[C@@H](Cc2c[nH]c3ccc(F)cc23)C(=O)N[C@H](C(=O)N[C@H](C(=O)N[C@H](CCCCNC(=O)[C@H](CCC(=O)O)NC(=O)CN2CCN(CC(=O)O)CCN(CC(=O)O)CCN(CC(=O)O)CC2)C(=O)O)C(C)(C)O)[C@@H](C)c2ccccc2)NC(=O)[C@H](Cc2ccc(NC(N)=O)cc2)NC(=O)[C@H](C(C)C)NC(=O)[C@H](CC(=O)O)NC(=O)[C@H](CC2CCOCC2)NC(=O)[C@H](CC2CCNCC2)NC(=O)CNC(=O)[C@H](C(C)(C)C)NC1=O [compound 503, Ac-hLeu-Y-C-Tbg-G-PipAla-ThpA-D-V-Aph(Cbm)-C-5FW-[(2S, 3S)beta-Me-Phe]-hydroxyVal-dLys(Glu-DOTA)-COOH] (Ac-[hLeu]YC[Tle]G[Ala(piperidin-4-yl)][Ala(4-THP)]DV[Phe(4-NHCONH2)]C[Trp(5-F)][X1][Val(3-OH)][dK]([Glu-DOTA])-OH; disulfide 3-11)"
2,< 0.001,"CC(=O)N[C@@H](CCC(C)C)C(=O)N[C@@H](Cc1ccc(O)cc1)C(=O)N[C@H]1CSSC[C@@H](C(=O)N[C@@H](Cc2c[nH]c3ccc(F)cc23)C(=O)N[C@@H](Cc2ccccc2)C(=O)N[C@H](C(=O)N[C@H](CO)C(=O)O)C(C)(C)O)NC(=O)[C@H](Cc2ccc(O)cc2)NC(=O)[C@H](C(C)C)NC(=O)[C@H](CC(=O)O)NC(=O)[C@H](CC2CCN(C(=O)CCOCCOCCOCCOCCNC(=O)CN3CCN(CC(=O)O)CCN(CC(=O)O)CCN(CC(=O)O)CC3)CC2)NC(=O)[C@H](CC2CCOCC2)NC(=O)CNC(=O)[C@H](C(C)(C)C)NC1=O [compound 484, Ac-hLeu-Y-C-Tbg-G-ThpA-Pip(PEG4-DOTA)Ala-D-V-Y-C-5FW-F-hydroxyVal-dSer-COOH] (Ac-[hLeu]YC[Tle]G[Ala(4-THP)][Ala(piperidin-4-yl)]([PEG4-DOTA])DVYC[Trp(5-F)]F[Val(3-OH)][dS]-OH; disulfide 3-11)"
3,0.01 to 0.1,"CC(=O)N[C@@H](CCC(C)C)C(=O)N[C@@H](Cc1ccc(O)cc1)C(=O)N[C@H]1CSSC[C@@H](C(=O)N[C@@H](Cc2c[nH]c3ccc(F)cc23)C(=O)N[C@@H](Cc2ccccc2)C(=O)N[C@H](C(=O)N[C@H](CCCCNC(=O)CN2CCN(CC(=O)O)CCN(CC(=O)O)CCN(CC(=O)O)CC2)C(=O)O)C(C)(C)O)NC(=O)[C@H](Cc2ccc(O)cc2)NC(=O)[C@H](C(C)C)NC(=O)[C@H](CC(=O)O)NC(=O)[C@H](CC2CCOCC2)NC(=O)[C@H](CCCCNC(=O)CC[C@H](NC(=O)CCCCCCCCCCCCCCC(=O)O)C(=O)O)NC(=O)CNC(=O)[C@H](C(C)(C)C)NC1=O [compound 405, Ac-hLeu-Y-C-Tbg-G-K(yE-C16OH)-ThpA-D-V-Y-C-5FW-F-hydroxyVal-dLys(DOTA)-COOH] (Ac-[hLeu]YC[Tle]GK([γGlu-C16 diacid])[Ala(4-THP)]DVYC[Trp(5-F)]F[Val(3-OH)][dK](DOTA)-OH; disulfide 3-11)"
